Data published in ChEMBL document CHEMBL5543142, “Discovery of YFJ-36: Design, Synthesis, and Antibacterial Activities of Catechol-Conjugated β-Lactams against Gram-Negative Bacteria” (J Med Chem, 2024).

Legend:
Type in all cases: ADME, organism-based
[1] = AUC (0 to infinity) in ICR mouse at 20 mg/kg,iv administration measured upto 4 hrs by LC-MS/MS analysis; settings: in vivo
[2] = Clearance in ICR mouse at 20 mg/kg,iv administration measured upto 4 hrs by LC-MS/MS analysis; settings: in vivo
[3] = Half life in ICR mouse at 20 mg/kg,iv administration measured upto 4 hrs by LC-MS/MS analysis; settings: in vivo
[4] = MRT in ICR mouse at 20 mg/kg,iv administration measured upto 4 hrs by LC-MS/MS analysis; settings: in vivo
[5] = Volume of distribution at steady state in ICR mouse at 20 mg/kg,iv administration measured upto 4 hrs by LC-MS/MS analysis; settings: in vivo, read-out: Vdss

## Cc1ccc(S(=O)(=O)O)cc1.Nc1nc(/C(=N/O[C@@H](C(=O)O)C2CCC(F)(F)CC2)C(=O)N[C@@H]2C(=O)N3C(C(=O)O)=C(CSCCNC(=O)c4ccc(O)c(O)c4Cl)CS[C@H]23)cs1
[1]
  AUC(0-inf): 2160 ng·h/mL
[2]
  clearance: 160 mL/min/kg
[3]
  half-life: 19.8 min
[4]
  MRT: 9 min
[5]
  Vd: 1.44 L/kg
